A short description of the series: Dissolution of domperidone co-processed with an organic acid (developmental studies). It counts as physicochemical. The settings on record: alkaline pH conditions encountered in the gastro-intestinal tract. An excerpt: According to a preferred embodiment of the invention, domperidone is co-processed with an organic acid in the ratio of from about 1:0.25 to about 0.25:1, preferably from about 1:0.5 to about 0.5:1, most preferably about 1:1. The co-processing may be aided by dissolving the two ingredients with the help of heat followed by cooling, when the dissolved material separates out. The material separated out may be removed and dried. The co-processed material may be incorporated into dosage forms such as tablets, which may further be combined with enteric coated tablets of proton pump inhibitor and an immediate release tablet of domperidone, in a hard gelatin capsule.

Regarding `O=c1[nH]c2ccccc2n1CCCN1CCC(n2c(=O)[nH]c3cc(Cl)ccc32)CC1` [domperidone], the dissolution result is given as “improved dissolution”.

The record behind these values is patent publication US20070160664A1, “Pharmaceutical compositions comprising of proton pump inhibitor and prokinetic agent” (PANACEA BIOTEC LIMITED, priority 2004, published 2007).
